Results taken from PMC9970836 (Biomolecules & Therapeutics, 2022).

Target: 5-HT2AR (Homo sapiens, UniProt P28223)
Experiment: 5-HT2AR radioligand binding assay

5-HT2AR, sequence (P28223 whole entry): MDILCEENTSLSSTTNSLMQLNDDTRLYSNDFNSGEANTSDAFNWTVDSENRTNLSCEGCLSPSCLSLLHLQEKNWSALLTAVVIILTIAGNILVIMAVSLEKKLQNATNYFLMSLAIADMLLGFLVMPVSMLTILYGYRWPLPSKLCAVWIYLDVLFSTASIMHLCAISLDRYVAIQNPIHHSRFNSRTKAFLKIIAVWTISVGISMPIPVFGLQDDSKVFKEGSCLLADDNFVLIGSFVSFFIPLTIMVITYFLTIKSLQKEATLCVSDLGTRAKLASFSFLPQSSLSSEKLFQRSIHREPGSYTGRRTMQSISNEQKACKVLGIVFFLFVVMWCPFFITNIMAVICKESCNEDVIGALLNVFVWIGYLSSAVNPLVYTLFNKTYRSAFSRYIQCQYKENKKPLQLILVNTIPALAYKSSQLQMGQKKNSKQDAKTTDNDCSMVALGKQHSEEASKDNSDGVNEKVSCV

SMILES | Ki
COc1cc(CCNCc2ccccc2OC)c(OC)cc1C [Compd 6, 2-(2,5-dimethoxy-4-methylphenyl)-N-(2-methoxybenzyl)ethanamine] | 2.88 nM
COc1cc([N+](=O)[O-])c(OC)cc1CCN [Compd 2, 2,5-Dimethoxy-4-nitrophenethylamine] | 25.2 nM
CCc1cc(OC)c(CCNCc2ccccc2OC)cc1OC [Compd 7, 2-(4-ethyl-2,5-dimethoxyphenyl)-N-(2-methoxybenzyl)ethan-1-amine] | 1.52 nM
CCCN(CC)CCc1c[nH]c2ccc(OC)cc12 [Compd 20, 5-methoxy -N-ethyl-N-propyl tryptamine] | 122 nM
CCN(CC)CCc1c[nH]c2cccc(OC(C)=O)c12 [Compd 18, 4-Acetoxy-N,N-diethyltryptamine] | 595 nM
COc1cc(CCNCc2ccccc2F)c(OC)cc1Br [Compd 12, 4-bromo-N-[(2-fluorophenyl)methyl]-2,5-dimethoxy-benzeneethanamine] | 3.63 nM
C=CCN(CC=C)CCc1c[nH]c2ccc(OC)cc12 [Compd 25, N-allyl-N-[2-(5-methoxy-1H-indol-3-yl)ethyl] prop-2-en-1-amine] | 258 nM
COc1cc(CCNCc2ccccc2F)c(OC)cc1Cl [Compd 11, 4-chloro-N-[(2-fluorophenyl)methyl]-2,5-dimethoxy-benzeneethanamine] | 10.8 nM
CCCc1cc(OC)c(CCN)cc1OC [Compd 1, 2,5-dimethoxy-4-propyl-benzeneethanamine] | 3.47 nM
COc1cc(CCNCc2ccccc2OC)c(OC)cc1Cl [Compd 8, 2-(4-chloro-2,5-dimethoxyphenyl)-N-(2-methoxybenzyl)ethanamine] | 0.817 nM
